The values below are quoted from earlier work in article PMC3665737 (Biochimica et biophysica acta, 2013).

One series concerns PKA (C subunit). The conditions noted are these: ALLN 500 μM, 30 min, 37 °C, ref [15]; for calpain dependence of induced PKA activity (effect of ALLN): oligomycin 5 μM, rotenone 10 μM, CCCP 5 μM, sodium azide 2 mM.
Another series concerns mitochondrial calpain. The conditions noted are these: bovine heart mitochondria; substrate N-succinyl-Leu-Tyr-7-amido-4-methylcoumarin; ref [15].
Series [1] deals with regulatory subunits (RI and RII) of PKA. The conditions noted are these: bovine heart mitochondria exposed to digitonin; ref [15].
The next series deals with PKA. To be noted: peptides 1 - 3, with 14-3-3 domain; ref [14].
In a further series the test system is C subunit. The conditions noted are these: isolated C subunit; Ca^2+ ≥ 100 μM, 37 °C, 20 min; ref [15].
Another series deals with R2C2 holoenzyme. To be noted: 100 μM CaCl2, 0.5, 1.5, and 2.0 h, western blot, ref [15]. In general terms: Immunoblotting shows a protein as a band on a membrane.
In a further series the test system is R subunit. The conditions noted are these: isolated R subunit; 10 μM CaCl2, 37 °C, 20 min; ref [15].

Where a SMILES comes first, the peptide text is derived from it. [ ]: non-standard residue; d: D form. Nle = CCCC[C@H](N)C(=O)O

Consider `[N-]=[N+]=[N-].[Na+]` [azide, sodium azide], for which the “calpain dependence of induced PKA activity (effect of ALLN)” value (shortened to “calpain dependence”) with PKA (C subunit) is reported as “attenuated by ALLN”.

`CCCC[C@@H](C=O)NC(=O)[C@H](CC(C)C)NC(=O)[C@H](CC(C)C)NC(C)=O` [ALLN, N-acetyl-Leu-Leu-Nle-al] (Ac-Leu-Leu-[Nle]-aldehyde): the “attenuation of PKA activity induced by rotenone, azide and CCCP” value in the series with PKA (C subunit) (western blot) is recorded as “attenuated”.

As for `CC[C@H]1/C=C/C=C/C[C@@H](C)[C@H](O)[C@@](C)(O)C(=O)[C@@H](C)[C@H](O)[C@@H](C)C(=O)[C@@H](C)[C@H](O)[C@@H](C)/C=C/C(=O)O[C@@H]2[C@H](C)[C@H](CC1)O[C@]1(CC[C@H](C)[C@H](C[C@@H](C)O)O1)[C@H]2C` [oligomycin], the “calpain dependence” value in the series on PKA (C subunit) is listed as “calpain independent”.

Consider `N#CC(C#N)=NNc1cccc(Cl)c1` [CCCP, chlorophenylhydrazone], for which the “calpain dependence” value in the series on PKA (C subunit) is “attenuated by ALLN”.

As for `C[C@@H]1CC[C@@]2(OC1)O[C@H]1[C@@H](O)[C@H]3[C@@H]4CC[C@H]5C[C@@H](O[C@@H]6O[C@H](CO)[C@H](O[C@@H]7O[C@H](CO)[C@@H](O)[C@H](O[C@@H]8OC[C@@H](O)[C@H](O)[C@H]8O)[C@H]7O[C@@H]7O[C@H](CO)[C@H](O)[C@H](O[C@@H]8O[C@H](CO)[C@@H](O)[C@H](O)[C@H]8O)[C@H]7O)[C@H](O)[C@H]6O)[C@H](O)C[C@]5(C)[C@H]4CC[C@]3(C)[C@H]1[C@@H]2C` [digitonin], the “activation of mitochondrial calpain” value in the series with mitochondrial calpain was “direct activation of mitochondrial calpain”. Besides, the C subunit proteolysis result in series [1] is given as “the catalytic subunit (C) remained intact”.

As for `C=C(C)[C@H]1Cc2c(ccc3c2O[C@@H]2COc4cc(OC)c(OC)cc4[C@@H]2C3=O)O1` [rotenone], the “calpain dependence” value in the series on PKA (C subunit) is listed as “attenuated by ALLN”.

With `CCCCc1ccc(Nc2ccc(Nc3ccc(CCCC)cc3S(=O)(=O)[O-])c3c2C(=O)c2ccccc2C3=O)c(S(=O)(=O)[O-])c1.[Na+].[Na+]` [Acid green 27], in the series on PKA, the “PKA-induced fluorescence increase with quencher” value was “dramatic PKA-induced fluorescence increase”.

B1: calpain I: Ca^2+-activated protease (protein, UniProt P07384 2-714; P04632 1-268, looked up)
Calpain-1 catalytic subunit: SEEIITPVYCTGVSAQVQKQRARELGLGRHENAIKYLGQDYEQLRVRCLQSGTLFRDEAFPPVPQSLGYKDLGPNSSKTYGIKWKRPTELLSNPQFIVDGATRTDICQGALGDCWLLAAIASLTLNDTLLHRVVPHGQSFQNGYAGIFHFQLWQFGEWVDVVVDDLLPIKDGKLVFVHSAEGNEFWSALLEKAYAKVNGSYEALSGGSTSEGFEDFTGGVTEWYELRKAPSDLYQIILKALERGSLLGCSIDISSVLDMEAITFKKLVKGHAYSVTGAKQVNYRGQVVSLIRMRNPWGEVEWTGAWSDSSSEWNNVDPYERDQLRVKMEDGEFWMSFRDFMREFTRLEICNLTPDALKSRTIRKWNTTLYEGTWRRGSTAGGCRNYPATFWVNPQFKIRLDETDDPDDYGDRESGCSFVLALMQKHRRRERRFGRDMETIGFAVYEVPPELVGQPAVHLKRDFFLANASRARSEQFINLREVSTRFRLPPGEYVVVPSTFEPNKEGDFVLRFFSEKSAGTVELDDQIQANLPDEQVLSEEEIDENFKALFRQLAGEDMEISVKELRTILNRIISKHKDLRTKGFSLESCRSMVNLMDRDGNGKLGLVEFNILWNRIRNYLSIFRKFDLDKSGSMSAYEMRMAIESAGFKLNKKLYELIITRYSEPDLAVDFDNFVCCLVRLETMFRFFKTLDTDLDGVVTFDLFKWLQLTMFA
Calpain small subunit 1: MFLVNSFLKGGGGGGGGGGGLGGGLGNVLGGLISGAGGGGGGGGGGGGGGGGGGGGTAMRILGGVISAISEAAAQYNPEPPPPRTHYSNIEANESEEVRQFRRLFAQLAGDDMEVSATELMNILNKVVTRHPDLKTDGFGIDTCRSMVAVMDSDTTGKLGFEEFKYLWNNIKRWQAIYKQFDTDRSGTICSSELPGAFEAAGFHLNEHLYNMIIRRYSDESGNMDFDNFISCLVRLDAMFRAFKSLDKDGTGQIQVNIQEWLQLTMYS
In the case of B1, the C subunit digestion entry with C subunit was “partial proteolysis”. Besides, in the series on R2C2 holoenzyme, the “subunit proteolysis in holoenzyme” value is recorded as “proteolysis of the R subunit, but not the C subunit”. In addition, in the series with R subunit, the R subunit digestion entry is “selectively digested”.
